The values below come from US20230286973A1, “PROTEIN SECRETION INHIBITORS” (KEZAR LIFE SCIENCES, priority 2020, published 2023).

Where two headings read alike, the source gives them in different places. Bounds are passed on as bounds.

Series [1] has as its system TNFα-FL/Gaussia Luciferase. Kind of series: Dox Induced TNFα-FL-Gluc Assay. It counts as cell-based. To be noted: for IC50: 24 hr Dox induction, 293FRT/TO cells, read-out: 24 hr Dox Inducible TNFaFLGluc 293FRT/TO: Mean IC50; for 24 hr Dox Inducible TNFaFLGluc 293FRT/TO: TNF/PD1: ratio of TNFaFLGluc IC50 to PD1ssGluc IC50. An outline of the steps:
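Flp-In 293 T-REx cells stably expressing full-length TNFα (aa 1-233) fused at its C-terminus to Gaussia luciferase under tetracycline-regulated control were plated the day before assay. Compound dilutions in DMSO/media containing doxycycline were added and incubated at 37 °C, 5% CO2. Unspecified stereochemistry denotes stereoisomer mixtures.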

In series [2] the test system is PD1-ss+10aa/Gaussia Luciferase. Kind of series: Dox-Induced PD1-ss-Gluc Assay. Format: cell-based. To be noted: 24 hr Dox induction, 293FRT/TO cells, read-out: 24 hr Dox Inducible PD1ssGluc 293FRT/TO: Mean IC50. The procedure, abridged:
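Flp-In 293 T-REx cells stably carrying a doxycycline-inducible Gaussia luciferase fused to the PD1 signal sequence plus 10 aa were plated the day before. Compound dilutions in DMSO/media containing doxycycline were then added and incubated at 37 °C, 5% CO2. Data for undefined stereochemistry refer to stereoisomer mixtures.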

The subject of series [3] is multiple myeloma cell line U266B1. Kind of series: U266 Cell Viability Assay. It counts as cell-based, human. The note with it: Homo sapiens, U-266, 48 h, U266B1 cells, Celltiter-Glo. The procedure, abridged:
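Cells grown in RPMI 1640 with 10% FBS, 2 mM glutamine and penicillin/streptomycin were exposed to compound dilutions in DMSO/media for 48 hours at 37° C., 5% CO2. Viability was read by CellTiter-Glo luminescence. Undefined stereocentres mean data for stereoisomer mixtures.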
(Cellular ATP, detected with luciferase, serves as a proxy for viable cell number.)

A short description of series [4]: Liver Microsome Stability Assay (human). The note with it: human liver microsomes, with NADPH, 1.0 uM compound.
Method: (§1) Stability of a compound was assessed in the presence of liver microsomes from various sources—mouse, rat, monkey and human liver microsomes. 1.0 uM compound, 0.4% DMSO in 0.1 M Potassium Phosphate with 1.0 mg/mL liver microsomes, were incubated at 37° C. with or without 1 mM NADPH. The samples were quenched at 0, and 30 minutes.
Series [5] has as its system multiple myeloma cell line NCI-H929. Kind of series: H929 Cell Viability Assay. Format: cell-based, human. The note with it: Homo sapiens, NCI-H929, 48 h, NCI-H929 cells, Celltiter-Glo. An outline of the steps: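 NCI-H929 cells, resuspended in RPMI 1640 with 10% FBS and 2 mM glutamine, were treated with compound dilutions in DMSO/media and incubated 48 hours at 37° C, 5% CO2. Viability was read by CellTiter-Glo luminescence. Compounds drawn without stereochemistry were tested as stereoisomer mixtures.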

A short description of series [6]: Liver Microsome Stability Assay (monkey). To be noted: monkey liver microsomes, with NADPH, 1.0 uM compound. (Liver microsomes are a subcellular fraction often used to study metabolism.)
Method: as §1
Series [7] relates to HER3-ss+4aa/Gaussia Luciferase. The experiment in a line: Dox-Induced Her3-ss-Gluc Assay. It counts as cell-based. The note with it: 24 hr Dox induction, 293FRT/TO cells, read-out: 24 hr Dox Inducible Her3(ss + 4)Gluc 293FRT/TO: Mean IC50. The procedure, abridged:
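Stable Flp-In 293 T-REx line expressing Gaussia luciferase fused to the HER3 signal sequence plus 4 amino acids under tetracycline-regulated (T-REx) control. Cells plated the day before, then treated with compound dilutions in DMSO/media containing doxycycline and incubated at 37° C., 5% CO2.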

Series [8] is described as follows: Liver Microsome Stability Assay (rat). The note with it: rat liver microsomes, with NADPH, 1.0 uM compound.
Method: as §1
Series [9] can be described thus: Liver Microsome Stability Assay (mouse). To be noted: mouse liver microsomes, with NADPH, 1.0 uM compound.
Method: as §1
Series [10] relates to IL-2-FL/Gaussia Luciferase. Kind of series: Dox Induced IL2-FL-Gluc Assay. To be noted: for IC50: 24 hr Dox induction, 293FRT/TO cells, read-out: 24 hr Dox Inducible IL2FLGluc 293FRT/TO: Mean IC50; for 24 hr Dox Inducible IL2FLGluc 293FRT/TO: IL2/PD1: ratio of IL2FLGluc IC50 to PD1ssGluc IC50. Format: cell-based. The procedure, abridged: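 Flp-In 293 T-REx cells stably carrying doxycycline-inducible full-length IL-2 (aa 1-153) fused at its C-terminus to Gaussia luciferase, selected with hygromycin and blasticidin. Cells were plated the day before, then treated with compounds in DMSO/media containing doxycycline at 37° C, 5% CO2.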

The mark [11] stands for this setting: '<=>' given where both are I.A.

A word on the EC50: it is the midpoint of the concentration-response curve. Regarding `CC(=O)N[C@@H](C)c1ccc(N2CCC[C@@H]2c2csc(NC(=O)c3cccn3Cc3ccnc(F)c3)n2)cc1` [Compound A69, N-(4-((R)-1-(4-((S)-1-acetamidoethyl)phenyl)pyrrolidin-2-yl)thiazol-2-yl)-1-((2-fluoropyridin-4-yl)methyl)-1H-pyrrole-2-carboxamide], the IC50 in [1] came out at 0.33 µM; in series [2] it was 0.052 µM; in [7], 0.0604 µM; in series [10] it was 0.116 µM. Besides, the “24 hr Dox Inducible TNFaFLGluc 293FRT/TO: TNF/PD1” value in series [1] was found to be 6.35. In addition, the EC50 in series [3] is more than 25 µM; in [5], 3.18 µM. Also, the “Liver Microsome Stability (Multiple Species): Human - % Remaining after 30 min w/NADPH” value in [4] stood at 1.43%. For the same compound, the “Liver Microsome Stability (Multiple Species): Monkey - % Remaining after 30 min w/NADPH” value in [6] is on record as 0.47%. Besides, the “Liver Microsome Stability (Multiple Species): Rat - % Remaining after 30 min w/NADPH” value in series [8] was determined as 35%. In [9], the “Liver Microsome Stability (Multiple Species): Mouse - % Remaining after 30 min w/NADPH” value is recorded as 12.1%. Besides, in series [10], the “24 hr Dox Inducible IL2FLGluc 293FRT/TO: IL2/PD1” value is listed as 2.2.

Regarding `CC1CCn2cnc(/C=C/c3csc(NC(=O)c4cccn4Cc4ccnc(F)c4)n3)c2C1` (centres unmarked) [Compound B97, (E)-1-((2-fluoropyridin-4-yl)methyl)-N-(4-(2-(7-methyl-5,6,7,8-tetrahydroimidazo[1,5-a]pyridin-1-yl)vinyl)thiazol-2-yl)-1H-pyrrole-2-carboxamide], the IC50 in series [1] was more than 25 µM; in [2] it was 0.244 µM; in series [7], 4.79 µM; in series [10], 7.51 µM. Besides, the “24 hr Dox Inducible TNFaFLGluc 293FRT/TO: TNF/PD1” value in series [1] was more than 103. Moreover, the EC50 in series [3] and in series [5] was more than 25 µM in each case. The “Liver Microsome Stability (Multiple Species): Human - % Remaining after 30 min w/NADPH” value in [4] is on record as 0.3%. For the same compound, the “Liver Microsome Stability (Multiple Species): Monkey - % Remaining after 30 min w/NADPH” value in [6] was found to be 0.13%. In addition, in [8], the “Liver Microsome Stability (Multiple Species): Rat - % Remaining after 30 min w/NADPH” value turned out to be 10.8%. Also, the “Liver Microsome Stability (Multiple Species): Mouse - % Remaining after 30 min w/NADPH” value in series [9] is given as 13.8%. Besides, the “24 hr Dox Inducible IL2FLGluc 293FRT/TO: IL2/PD1” value in [10] was 31.

As to `O=C(Nc1nc(/C=C/c2coc(C3CC3)n2)cs1)c1cccn1Cc1ccncc1` [Compound B40, (E)-N-(4-(2-(2-cyclopropyloxazol-4-yl)vinyl)thiazol-2-yl)-1-(pyridin-4-ylmethyl)-1H-pyrrole-2-carboxamide], the IC50 in series [1] is more than 25 µM; in series [2], 0.221 µM; in series [7], 1.68 µM; in series [10], 4.57 µM. Besides, the “24 hr Dox Inducible TNFaFLGluc 293FRT/TO: TNF/PD1” value in series [1] is more than 113. The EC50 in [3] and in series [5] was more than 25 µM each time. In addition, the “Liver Microsome Stability (Multiple Species): Human - % Remaining after 30 min w/NADPH” value in [4] came to 0.48%. Besides, in [6], the “Liver Microsome Stability (Multiple Species): Monkey - % Remaining after 30 min w/NADPH” value came out at 2.25%. Besides, in [8], the “Liver Microsome Stability (Multiple Species): Rat - % Remaining after 30 min w/NADPH” value is 0.73%. Also, the “Liver Microsome Stability (Multiple Species): Mouse - % Remaining after 30 min w/NADPH” value in [9] worked out at 5.73%. Besides, the “24 hr Dox Inducible IL2FLGluc 293FRT/TO: IL2/PD1” value in [10] worked out at 21.

With `CN(C)C(=O)CCCn1cccc1C(=O)Nc1nc([C@H]2CCCN2c2ccccc2)cs1` [Compound C61, (R)-1-(4-(dimethylamino)-4-oxobutyl)-N-(4-(1-phenylpyrrolidin-2-yl)thiazol-2-yl)-1H-pyrrole-2-carboxamide], the IC50 in series [1] (mean) was more than 25 µM; in [2] (mean), 8.96 µM; in series [7] (mean), 20.4 µM; in series [10] (mean), 16.7 µM. Also, in series [1] (setting [11]), the “24 hr Dox Inducible TNFaFLGluc 293FRT/TO: TNF/PD1” value is more than 2.79. The EC50 in series [3] and in series [5] was more than 25 µM throughout. Moreover, in series [4], the “Liver Microsome Stability (Multiple Species): Human - % Remaining after 30 min w/NADPH” value was determined as 0.27%. Besides, the “Liver Microsome Stability (Multiple Species): Monkey - % Remaining after 30 min w/NADPH” value in [6] was determined as 0.03%. Moreover, in series [8], the “Liver Microsome Stability (Multiple Species): Rat - % Remaining after 30 min w/NADPH” value came to 3.4%. Also, the “Liver Microsome Stability (Multiple Species): Mouse - % Remaining after 30 min w/NADPH” value in series [9] is given as 0.16%. Besides, the “24 hr Dox Inducible IL2FLGluc 293FRT/TO: IL2/PD1” value in series [10] (setting [11]) is 1.9.

Regarding `N#Cc1ccccc1Cn1cccc1C(=O)Nc1nc([C@H]2CCCN2c2ccccc2)cs1` [Compound C86, (R)-1-(2-cyanobenzyl)-N-(4-(1-phenylpyrrolidin-2-yl)thiazol-2-yl)-1H-pyrrole-2-carboxamide], the IC50 is more than 25 µM in series [1] (mean), 2.98 µM in series [2] (mean), 1.11 µM in series [7] (mean) and 2.38 µM in series [10] (mean). Besides, the “24 hr Dox Inducible TNFaFLGluc 293FRT/TO: TNF/PD1” value in series [1] (setting [11]) is reported as more than 8.38. Moreover, the EC50 in series [3] and in series [5] was more than 25 µM each time. The “Liver Microsome Stability (Multiple Species): Human - % Remaining after 30 min w/NADPH” value in series [4] was 27.3%. Besides, the “Liver Microsome Stability (Multiple Species): Monkey - % Remaining after 30 min w/NADPH” value in series [6] is given as 15%. Also, in series [8], the “Liver Microsome Stability (Multiple Species): Rat - % Remaining after 30 min w/NADPH” value stood at 20.2%. Also, the “Liver Microsome Stability (Multiple Species): Mouse - % Remaining after 30 min w/NADPH” value in [9] was 43.5%. Also, in series [10] (setting [11]), the “24 hr Dox Inducible IL2FLGluc 293FRT/TO: IL2/PD1” value came out at 0.8.

As to `CC(=O)N1CCCCC1c1ccc(N2CCC[C@@H]2c2csc(NC(=O)c3cccn3Cc3ccncc3)n2)cc1` (stereo partly drawn) [Compound A58, N-(4-((2R)-1-(4-(1-acetylpiperidin-2-yl)phenyl)pyrrolidin-2-yl)thiazol-2-yl)-1-(pyridin-4-ylmethyl)-1H-pyrrole-2-carboxamide], the IC50 amounted to 1.88 µM in series [1], 0.108 µM in [2], 0.249 µM in series [7] and 0.296 µM in series [10]. In addition, in series [1], the “24 hr Dox Inducible TNFaFLGluc 293FRT/TO: TNF/PD1” value worked out at 17.4. For the same compound, the half-maximal effective concentration (EC50) in series [3] stood at 9.99 µM; in [5] it was 3.34 µM. The “Liver Microsome Stability (Multiple Species): Human - % Remaining after 30 min w/NADPH” value in [4] was determined as 0.4%. The “Liver Microsome Stability (Multiple Species): Monkey - % Remaining after 30 min w/NADPH” value in series [6] amounted to 0.29%. Besides, the “Liver Microsome Stability (Multiple Species): Rat - % Remaining after 30 min w/NADPH” value in series [8] worked out at 4.13%. Further, in [9], the “Liver Microsome Stability (Multiple Species): Mouse - % Remaining after 30 min w/NADPH” value is on record as 0.24%. The “24 hr Dox Inducible IL2FLGluc 293FRT/TO: IL2/PD1” value in series [10] was determined as 2.7.

Take `O=C(NC1=NC(/C=C/c2ccccc2)CS1)c1cccn1Cc1ccncc1` (centres unmarked) [Compound E51]: the IC50 in series [1] (mean), in [2] (mean), in series [7] (mean) and in series [10] (mean) was more than 25 µM in each case. Besides, the concentration for a half-maximal effect (EC50) in series [3] and in series [5] was more than 25 µM in each case. Besides, the “Liver Microsome Stability (Multiple Species): Human - % Remaining after 30 min w/NADPH” value in [4] is on record as 0.01%. The “Liver Microsome Stability (Multiple Species): Monkey - % Remaining after 30 min w/NADPH” value in [6] stood at 0.06%. Moreover, in series [8], the “Liver Microsome Stability (Multiple Species): Rat - % Remaining after 30 min w/NADPH” value is recorded as 0.98%. Moreover, the “Liver Microsome Stability (Multiple Species): Mouse - % Remaining after 30 min w/NADPH” value in series [9] was found to be 0.08%. Further, the “24 hr Dox Inducible IL2FLGluc 293FRT/TO: IL2/PD1” value in [10] (setting [11]) turned out to be 1.
